# Measurements as given in US11331314B2, “Amine substituted triazole derivatives and uses thereof” (Bayer Pharma Aktiengesellschaft, priority 2017, dated 2022).
# Key:
# human V2 receptor = biological target: T1, human V2 receptor (Homo sapiens, UniProt P30518); assay: Cellular in vitro assay for determining vasopressin receptor activity, V2 receptor cell line (CRE-luciferase); type: cell-based; conditions: CHO cell line transfected with the human V2 receptor; agonist [Arg8]-vasopressin at EC50 concentration; read-out: IC50 hV2
# T1 construct: expressed in transfected cells; host or cells: CHO K1 (ATCC) expressing firefly luciferase under a CRE-responsive promoter
# T1 sequence (P30518 whole entry): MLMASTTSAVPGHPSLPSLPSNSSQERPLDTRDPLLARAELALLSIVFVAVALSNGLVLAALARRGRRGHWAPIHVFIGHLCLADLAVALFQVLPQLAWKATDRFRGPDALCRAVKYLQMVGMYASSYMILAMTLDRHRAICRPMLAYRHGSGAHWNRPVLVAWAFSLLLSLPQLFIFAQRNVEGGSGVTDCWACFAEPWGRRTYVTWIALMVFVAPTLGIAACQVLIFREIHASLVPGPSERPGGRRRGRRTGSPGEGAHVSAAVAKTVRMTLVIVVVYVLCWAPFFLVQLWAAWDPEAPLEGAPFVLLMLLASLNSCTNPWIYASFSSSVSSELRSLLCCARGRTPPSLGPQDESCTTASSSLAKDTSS
# Method: (§1) B-1. Cellular In Vitro Assay for Determining Vasopressin Receptor Activity
# (§2) The identification of agonists and antagonists of the V1a and V2 vasopressin receptors from humans, rats and dogs as well as the quantification of the activity of the compounds of the invention is carried out using recombinant cell lines. These cell lines originally derive from a hamster's ovary epithelial cell (Chinese Hamster Ovary, CHO K1, ATCC: American Type Culture Collection, Manassas, Va. 20108, USA). The test cell lines constitutively express the human, rat or dog V1a or V2 receptors. In case of the Gαq-coupled V1a receptors, cells are also stably transfected with a modified form of the calcium-sensitive photoproteins aequorin (human and rat V1a) or obelin (dog V1a), which, after reconstitution with the cofactor coelenterazine, emit light when there are increases in free calcium concentrations [Rizzuto R, Simpson A W, Brini M, Pozzan T, Nature 358, 325-327 (1992); Illarionov B A, Bondar V S, Illarionova V A, Vysotski E S, Gene 153 (2), 273-274 (1995)]. The resulting vasopressin receptor cells react to stimulation of the recombinantly expressed V1a receptors by intracellular release of calcium ions, which can be quantified by the resulting photoprotein luminescence. The Gs-coupled V2 receptors are stably transfected into cell lines expressing the gene for firefly luciferase under control of a CRE-responsible promoter. Activation of V2 receptors induces the activation of the CRE-responsive promoter via cAMP increase, thereby inducing the expression of firefly luciferase. The light emitted by photoproteins of V1a cell lines as well as the light emitted by firefly luciferase of V2 cell lines corresponds to the activation or inhibition of the respective vasopressin receptor. The bioluminescence of the cell lines is detected using a suitable luminometer [Milligan G, Marshall F, Rees S, Trends in Pharmacological Sciences 17, 235-237 (1996)].
# Vasopressin V2 Receptor Cell Lines:
# On the day before the assay, the cells are plated out in culture medium (DMEM/F12, 2% FCS, 2 mM glutamine, 10 mM HEPES) in 384-well microtiter plates and kept in a cell incubator (96% humidity, 5% v/v CO2, 37° C.). On the day of the assay, test compounds in various concentrations and the agonist [Arg^8]-vasopressin at EC50 concentration are added together to the wells, and plates are incubated for 3 hours in a cell incubator. Upon addition of the cell lysis reagent Triton™ and the substrate luciferin, luminescence of firefly luciferase is measured in a luminometer.
# (§3) Table 1A below lists individual IC50 values for the compounds of the invention (including racemic mixtures as well as separated enantiomers) that were obtained from cell lines transfected with the human V1a or V2 receptor: […]
# human V1a receptor = human V1a receptor (Homo sapiens, UniProt P37288); assay: Cellular in vitro assay for determining vasopressin receptor activity, V1a receptor cell line (photoprotein luminescence); type: cell-based; conditions: for IC50: CHO cell line transfected with the human V1a receptor, agonist [Arg8]-vasopressin at EC50 concentration, read-out: IC50 hV1a; for ratio IC50 hV2/hV1a: selectivity ratio of the cellular IC50 values
# Chain of human V1a receptor (P37288 whole entry): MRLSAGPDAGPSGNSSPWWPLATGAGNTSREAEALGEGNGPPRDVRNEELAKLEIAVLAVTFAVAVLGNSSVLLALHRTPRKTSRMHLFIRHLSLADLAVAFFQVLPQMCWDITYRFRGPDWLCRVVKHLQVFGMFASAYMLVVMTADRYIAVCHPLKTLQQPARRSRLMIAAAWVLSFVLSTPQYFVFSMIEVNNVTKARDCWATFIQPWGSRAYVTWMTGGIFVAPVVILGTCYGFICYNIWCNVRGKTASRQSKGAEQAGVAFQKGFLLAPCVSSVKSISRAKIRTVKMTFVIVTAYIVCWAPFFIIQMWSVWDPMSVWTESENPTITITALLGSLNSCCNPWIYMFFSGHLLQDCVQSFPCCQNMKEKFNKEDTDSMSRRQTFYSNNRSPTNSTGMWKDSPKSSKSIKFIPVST
# Method: as §1, §2
# Vasopressin V1a Receptor Cell Lines:
# On the day before the assay, the cells are plated out in culture medium (DMEM/F12, 2% FCS, 2 mM glutamine, 10 mM HEPES, 5 μg/ml coelenterazine) in 384-well microtiter plates and kept in a cell incubator (96% humidity, 5% v/v CO2, 37° C.). On the day of the assay, test compounds in various concentrations are placed for 10 minutes in the wells of the microtiter plate before the agonist [Arg^8]-vasopressin at EC50 concentration is added. The resulting light signal is measured immediately in a luminometer.
# as §3
IC50 (human V2 receptor) [nM],IC50 (human V1a receptor) [nM],ratio IC50 hV2/hV1a (human V1a receptor),Structure (SMILES)
9.76,0.58,16.9,"COCCN(C)c1nc(Cn2nc(-c3ccc(Cl)cc3)n(C[C@H](O)C(F)(F)F)c2=O)nn1-c1ccccc1Cl [Example 85, 5-(4-Chlorophenyl)-2-({1-(2-chlorophenyl)-5-[(2-methoxyethyl)(methyl)amino]-1H-1,2,4-triazol-3-yl}methyl)-4-[(2S)-3,3,3-trifluoro-2-hydroxypropyl]-2,4-dihydro-3H-1,2,4-triazol-3-one]"
1800,10.3,–,"CC1(C)CN(c2nc(Cn3nc(-c4ccc(Cl)cc4)n(C[C@H](O)C(F)(F)F)c3=O)nn2CCC(F)(F)F)CCN1 [Example 114, 5-(4-Chlorophenyl)-2-{[5-(3,3-dimethylpiperazin-1-yl)-1-(3,3,3-trifluoropropyl)-1H-1,2,4-triazol-3-yl]methyl}-4-[(2S)-3,3,3-trifluoro-2-hydroxypropyl]-2,4-dihydro-3H-1,2,4-triazol-3-one]"
2.07,5.86,0.4,"CCOC(=O)CNc1nc(Cn2nc(-c3ccc(Cl)cc3)n(C[C@H](O)C(F)(F)F)c2=O)nn1-c1cccc(Cl)c1 [Example 115, Ethyl N-[1-(3-chlorophenyl)-3-({3-(4-chlorophenyl)-5-oxo-4-[(2S)-3,3,3-trifluoro-2-hydroxypropyl]-4,5-dihydro-1H-1,2,4-triazol-1-yl}methyl)-1H-1,2,4-triazol-5-yl]glycinate]"
17.1,7.79,2.2,"O=c1n(Cc2nc(N3CCOCC3)n(-c3cccc(F)c3)n2)nc(-c2ccc(Cl)cc2)n1C[C@H](O)C(F)(F)F [Example 119, 5-(4-Chlorophenyl)-2-{[1-(3-fluorophenyl)-5-(morpholin-4-yl)-1H-1,2,4-triazol-3-yl]methyl}-4-[(2S)-3,3,3-trifluoro-2-hydroxypropyl]-2,4-dihydro-3H-1,2,4-triazol-3-one]"
2.19,0.32,6.8,"COCCNc1nc(Cn2nc(-c3ccc(Cl)cc3)n(C[C@H](O)C(F)(F)F)c2=O)nn1-c1ccccc1Cl [Example 79, 5-(4-Chlorophenyl)-2-({1-(2-chlorophenyl)-5-[(2-methoxyethyl)amino]-1H-1,2,4-triazol-3-yl}methyl)-4-[(2S)-3,3,3-trifluoro-2-hydroxypropyl]-2,4-dihydro-3H-1,2,4-triazol-3-one]"
22,0.9,24.4,"NCCNc1nc(Cn2nc(-c3ccc(Cl)cc3)n(C[C@H](O)C(F)(F)F)c2=O)nn1-c1ccccc1Cl [Example 70, 2-({5-[(2-Aminoethyl)amino]-1-(2-chlorophenyl)-1H-1,2,4-triazol-3-yl}methyl)-5-(4-chlorophenyl)-4-[(2S)-3,3,3-trifluoro-2-hydroxypropyl]-2,4-dihydro-3H-1,2,4-triazol-3-one]"
3150,28,112.5,"CC(C)(N)CNc1nc(Cn2nc(-c3ccc(Cl)cc3)n(C[C@H](O)C(F)(F)F)c2=O)nn1-c1ccccn1 [Example 93, 2-({5-[(2-Amino-2-methylpropyl)amino]-1-(pyridin-2-yl)-1H-1,2,4-triazol-3-yl}methyl)-5-(4-chlorophenyl)-4-[(2S)-3,3,3-trifluoro-2-hydroxypropyl]-2,4-dihydro-3H-1,2,4-triazol-3-one]"
13,2.45,5.3,"O=C1CCCN1CCNc1nc(Cn2nc(-c3ccc(Cl)cc3)n(C[C@H](O)C(F)(F)F)c2=O)nn1-c1ccccc1Cl [Example 45, 5-(4-Chlorophenyl)-2-{[1-(2-chlorophenyl)-5-{[2-(2-oxopyrrolidin-1-yl)ethyl]amino}-1H-1,2,4-triazol-3-yl]methyl}-4-[(2S)-3,3,3-trifluoro-2-hydroxypropyl]-2,4-dihydro-3H-1,2,4-triazol-3-one]"

# Second part, the compound before the results:
Structure (SMILES),IC50 (human V2 receptor) [nM],IC50 (human V1a receptor) [nM],ratio IC50 hV2/hV1a (human V1a receptor)
"NC(=O)[C@H]1CCN(c2nc(Cn3nc(-c4ccc(Cl)cc4)n(C[C@H](O)C(F)(F)F)c3=O)nn2-c2ccccc2Cl)C1 [Example 57, (3S)-1-[1-(2-Chlorophenyl)-3-({3-(4-chlorophenyl)-5-oxo-4-[(2S)-3,3,3-trifluoro-2-hydroxypropyl]-4,5-dihydro-1H-1,2,4-triazol-1-yl}methyl)-1H-1,2,4-triazol-5-yl]pyrrolidine-3-carboxamide]",4.9,0.74,6.6
"O=c1n(Cc2nc(N3CCC(O)(C(F)(F)F)CC3)n(-c3ccccc3Cl)n2)nc(-c2ccc(Cl)cc2)n1C[C@H](O)C(F)(F)F [Example 28, 5-(4-Chlorophenyl)-2-({1-(2-chlorophenyl)-5-[4-hydroxy-4-(trifluoromethyl)piperidin-1-yl]-1H-1,2,4-triazol-3-yl}methyl)-4-[(2S)-3,3,3-trifluoro-2-hydroxypropyl]-2,4-dihydro-3H-1,2,4-triazol-3-one]",10,0.66,15.3
"CC(C)(CNc1nc(Cn2nc(-c3ccc(Cl)cc3)n(C[C@H](O)C(F)(F)F)c2=O)nn1-c1ccccc1Cl)C(N)=O [Example 5, 3-{[1-(2-Chlorophenyl)-3-({3-(4-chlorophenyl)-5-oxo-4-[(2S)-3,3,3-trifluoro-2-hydroxypropyl]-4,5-dihydro-1H-1,2,4-triazol-1-yl}methyl)-1H-1,2,4-triazol-5-yl]amino}-2,2-dimethylpropanamide]",3.8,0.64,6.0
"O=C1NCC(CNc2nc(Cn3nc(-c4ccc(Cl)cc4)n(C[C@H](O)C(F)(F)F)c3=O)nn2-c2ccccc2Cl)O1 (mixture of isomers) [Example 12, 5-(4-Chlorophenyl)-2-{[1-(2-chlorophenyl)-5-({[2-oxo-1,3-oxazolidin-5-yl]methyl}amino)-1H-1,2,4-triazol-3-yl]methyl}-4-[(2S)-3,3,3-trifluoro-2-hydroxypropyl]-2,4-dihydro-3H-1,2,4-triazol-3-one]",2.45,1.2,2.0
"O=c1n(Cc2nc(NCC3(O)CC3)n(-c3ccccc3Cl)n2)nc(-c2ccc(Cl)cc2)n1C[C@H](O)C(F)(F)F [Example 54, 5-(4-Chlorophenyl)-2-{[1-(2-chlorophenyl)-5-{[(1-hydroxycyclopropyl)methyl]amino}-1H-1,2,4-triazol-3-yl]methyl}-4-[(2S)-3,3,3-trifluoro-2-hydroxypropyl]-2,4-dihydro-3H-1,2,4-triazol-3-one]",1.56,0.54,2.9
"O=c1n(Cc2nc(N3CCC(O)(C(F)(F)F)C3)n(-c3ccccc3Cl)n2)nc(-c2ccc(Cl)cc2)n1C[C@H](O)C(F)(F)F (mixture of isomers) [Example 13, 5-(4-Chlorophenyl)-2-({1-(2-chlorophenyl)-5-[3-hydroxy-3-(trifluoromethyl)pyrrolidin-1-yl]-1H-1,2,4-triazol-3-yl}methyl)-4-[(2S)-3,3,3-trifluoro-2-hydroxypropyl]-2,4-dihydro-3H-1,2,4-triazol-3-one]",2.25,0.35,6.5
"CC1(O)CCN(c2nc(Cn3nc(-c4ccc(Cl)cc4)n(C[C@H](O)C(F)(F)F)c3=O)nn2-c2ccccc2Cl)C1 (single isomer, unassigned) [Example 31]",8.35,1.08,7.7
"CC(C)(N)CNc1nc(Cn2nc(-c3ccc(Cl)cc3)n(C[C@H](O)C(F)(F)F)c2=O)nn1-c1ccccc1Cl [Example 32, 2-({5-[(2-Amino-2-methylpropyl)amino]-1-(2-chlorophenyl)-1H-1,2,4-triazol-3-yl}methyl)-5-(4-chlorophenyl)-4-[(2S)-3,3,3-trifluoro-2-hydroxypropyl]-2,4-dihydro-3H-1,2,4-triazol-3-one]",24.8,0.35,71.2
